Measured values taken from ChEMBL document CHEMBL1135449, “A novel series of hybrid compounds derived by combining 2-aminotetralin and piperazine fragments: binding activity at D2 and D3 receptors” (Bioorg Med Chem Lett, 2002).

Experiments:
D(3) dopamine receptor = D(3) dopamine receptor (Homo sapiens, UniProt P35462); test: Tested for the binding constant against cloned human Dopamine receptor D3 in HEK cells by displacing [3H]spiperone; assay type: cell-based, HEK293
D(2) dopamine receptor = D(2) dopamine receptor (Homo sapiens, UniProt P14416); test: Tested for the binding constant against cloned human Dopamine receptor D2L in HEK cells by displacing [3H]spiperone; assay type: cell-based, HEK293
D(2) dopamine receptor, sequence (P14416 whole entry): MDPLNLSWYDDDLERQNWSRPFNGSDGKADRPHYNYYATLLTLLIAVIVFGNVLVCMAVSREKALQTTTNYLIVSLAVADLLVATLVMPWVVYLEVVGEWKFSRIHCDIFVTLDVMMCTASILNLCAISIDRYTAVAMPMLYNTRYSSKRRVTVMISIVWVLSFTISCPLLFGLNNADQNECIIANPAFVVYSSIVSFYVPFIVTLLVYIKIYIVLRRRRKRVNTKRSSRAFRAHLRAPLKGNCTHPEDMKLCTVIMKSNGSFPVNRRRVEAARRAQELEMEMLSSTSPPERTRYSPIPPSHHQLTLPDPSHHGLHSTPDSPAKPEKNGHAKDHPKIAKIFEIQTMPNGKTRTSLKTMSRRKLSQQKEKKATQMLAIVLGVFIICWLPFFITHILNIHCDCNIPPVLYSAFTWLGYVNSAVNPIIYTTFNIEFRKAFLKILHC

D(3) dopamine receptor, sequence (P35462 whole entry): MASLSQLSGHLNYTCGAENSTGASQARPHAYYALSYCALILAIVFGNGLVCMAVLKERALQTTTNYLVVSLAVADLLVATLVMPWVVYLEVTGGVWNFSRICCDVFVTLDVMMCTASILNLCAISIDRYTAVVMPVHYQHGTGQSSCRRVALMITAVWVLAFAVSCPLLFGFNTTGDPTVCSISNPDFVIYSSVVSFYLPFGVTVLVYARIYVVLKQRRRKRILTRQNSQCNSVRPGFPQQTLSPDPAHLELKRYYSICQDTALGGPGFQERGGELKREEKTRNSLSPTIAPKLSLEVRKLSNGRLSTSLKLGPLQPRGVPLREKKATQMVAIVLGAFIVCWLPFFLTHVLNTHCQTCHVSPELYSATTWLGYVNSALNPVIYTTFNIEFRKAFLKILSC

Ki (D(3) dopamine receptor)	Ki (D(2) dopamine receptor)	SMILES
0.0502 µM	0.622 µM	N#CCCCN(CCCN1CCN(c2ccccc2)CC1)C1CCc2ccc(O)cc2C1 (stereo not drawn)
0.756 µM	0.782 µM	O=C(NCCCCN(CCCN1CCN(c2ccccc2)CC1)C1CCc2ccc(O)cc2C1)c1ccccc1 (stereo not drawn)
0.0557 µM	0.354 µM	O=C(NCCN(CCCN1CCN(c2ccccc2)CC1)C1CCc2ccc(O)cc2C1)c1ccccc1 (stereo not drawn)
0.00113 µM	0.0274 µM	CCCN(CCN1CCN(c2cccc(Cl)c2Cl)CC1)C1CCc2ccc(O)cc2C1 (stereo not drawn)
